How the values were obtained:
[1] = biological target: T1, Muscarinic acetylcholine receptor M2 (Rattus norvegicus, UniProt P10980); assay: Binding affinity towards muscarinic receptor of gastric fundus containing Muscarinic acetylcholine receptor M2; assay type: tissue-based, Stomach
T1 sequence (P10980 whole entry): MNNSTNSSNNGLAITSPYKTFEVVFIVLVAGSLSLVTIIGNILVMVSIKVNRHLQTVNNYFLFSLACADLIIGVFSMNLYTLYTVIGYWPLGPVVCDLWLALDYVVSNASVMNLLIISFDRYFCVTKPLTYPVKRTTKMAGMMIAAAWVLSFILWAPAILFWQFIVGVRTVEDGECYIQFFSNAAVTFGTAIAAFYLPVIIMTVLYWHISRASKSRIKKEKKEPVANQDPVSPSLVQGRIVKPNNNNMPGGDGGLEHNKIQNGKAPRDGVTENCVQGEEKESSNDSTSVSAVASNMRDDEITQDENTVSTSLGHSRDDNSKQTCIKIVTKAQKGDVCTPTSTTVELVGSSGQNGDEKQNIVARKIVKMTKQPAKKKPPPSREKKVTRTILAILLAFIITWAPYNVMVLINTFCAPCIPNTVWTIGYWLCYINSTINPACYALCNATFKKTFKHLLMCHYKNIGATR

[2] = biological target: T2, Muscarinic acetylcholine receptor M1 (Rattus norvegicus, UniProt P08482); assay: biochemical
T2 sequence (P08482 whole entry): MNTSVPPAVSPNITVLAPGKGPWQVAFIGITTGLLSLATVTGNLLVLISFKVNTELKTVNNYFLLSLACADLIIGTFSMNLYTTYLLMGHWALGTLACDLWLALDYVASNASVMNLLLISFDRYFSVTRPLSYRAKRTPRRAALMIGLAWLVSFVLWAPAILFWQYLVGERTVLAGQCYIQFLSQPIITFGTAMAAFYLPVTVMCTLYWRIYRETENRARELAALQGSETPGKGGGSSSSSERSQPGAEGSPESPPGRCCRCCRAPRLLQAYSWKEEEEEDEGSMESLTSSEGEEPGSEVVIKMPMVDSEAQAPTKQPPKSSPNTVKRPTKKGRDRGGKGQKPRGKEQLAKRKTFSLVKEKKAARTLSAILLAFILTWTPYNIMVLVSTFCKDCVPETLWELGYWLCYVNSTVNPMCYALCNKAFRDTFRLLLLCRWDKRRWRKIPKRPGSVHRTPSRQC
Description: Binding affinity towards Muscarinic acetylcholine receptor M1 of cerebral cortex

[3] = biological target: T2, Muscarinic acetylcholine receptor M1; assay: Binding affinity towards muscarinic receptor of cerebral cortex containing Muscarinic acetylcholine receptor M1; assay type: tissue-based
[4] = Partition coefficient (log P) at pH 7.4; assay type: physicochemical; conditions: octanol/water

| SMILES | IC50 [1] [µM] | IC50 [2] [µM] | IC50 [3] [µM] | logD [4] |
| --- | --- | --- | --- | --- |
| CN(C)CCC(=O)N1c2ccccc2C(=O)Nc2cccnc21 | 0.2 |  | 0.2 |  |
| CN(C)CCCC(=O)N1c2ccccc2C(=O)Nc2cccnc21 | 0.1 |  | 0.05 |  |
| CN1CCN(CC(=O)N2c3ccccc3NC(=O)c3cscc32)CC1 | 0.35 | 0.05 |  | -0.15 |
| CN(C)CC(=O)N1c2ccccc2C(=O)Nc2cccnc21 | 0.7 | 1.5 |  |  |
| CN1CCN(CC(=O)N2c3ccccc3NC(=O)c3ccccc32)CC1 | 0.1 | 0.023 |  | 0.11 |
| CN1CCN(CC(=O)N2c3ccccc3NC(=O)c3cccnc32)CC1 | 3 | 0.3 |  | -0.42 |
| CN1CCN(CCC(=O)N2c3ccccc3C(=O)Nc3cccnc32)CC1 | 12 |  | 10 |  |
| CN(C)CCCCC(=O)N1c2ccccc2C(=O)Nc2cccnc21 | 0.5 | 0.6 |  |  |

The remaining lines, values ahead:

| IC50 [1] [µM] | IC50 [2] [µM] | IC50 [3] [µM] | logD [4] | SMILES |
| --- | --- | --- | --- | --- |
| 0.7 | 0.07 |  |  | CN1CCC(CC(=O)N2c3ccccc3C(=O)Nc3cccnc32)CC1 |
| 0.008 |  | 0.01 |  | CN1CCCCC1CC(=O)N1c2ccccc2C(=O)Nc2cccnc21 (stereo not drawn) |
| 0.9 | 0.06 |  |  | CN1CCN(NC(=O)N2c3ccccc3C(=O)Nc3cccnc32)CC1 |
| 0.9 | 0.1 |  |  | CN1CCC(OC(=O)N2c3ccccc3C(=O)Nc3cccnc32)CC1 |
| 0.6 | 0.15 |  |  | CN1CCN(C(=O)N2c3ccccc3C(=O)Nc3cccnc32)CC1 |
| 1.2 | 0.2 |  |  | CN1CCC(NC(=O)N2c3ccccc3C(=O)Nc3cccnc32)CC1 |
| 0.15 |  | 0.1 |  | CN1CCCC(CC(=O)N2c3ccccc3C(=O)Nc3cccnc32)CC1 (stereo not drawn) |
| 0.05 |  | 0.02 |  | CN1CCC(CC(=O)N2c3ccccc3C(=O)Nc3cccnc32)C1 (stereo not drawn) |
| 0.12 |  | 0.1 |  | CN1CCCC(CC(=O)N2c3ccccc3C(=O)Nc3cccnc32)C1 (stereo not drawn) |
|  |  |  | -0.64 | CN1CCN(CC(=O)N2c3ccccc3C(=O)Nc3cccnc32)CC1 [PIRENZEPINE] |
